This is an account of results in PMC6332424, “Synthesis and Evaluation of New Pyrazoline Derivatives as Potential Anticancer Agents” (Molecules, 2015).

Entries after “also recorded” stand apart in the source; their conditions may differ.

Data set [1] concerns AsPC-1 human pancreatic adenocarcinoma cell line. In words: MTT assay for cytotoxicity, AsPC-1 cells. The class given is cell-based. The note with it: 24 h incubation, read-out: IC50 AsPC1 Cell Line. As to the method:
(§1) U251 and U87 human glioblastoma cells were incubated in Dulbecco’s-modified Eagle’s medium (DMEM) (Wako Pure Chemical Industries, Osaka, Japan) supplemented with 10% fetal bovine serum (FBS) (Equitech-Bio, Kerrville, TX, USA). AsPC-1 human pancreas adenocarcinoma and Jurkat human leukemic T-cells were incubated RPMI 1640 (Wako Pure Chemical Industries), supplemented with 10% FBS. Peripheral blood mononuclear cells (PBMC) (Precision Bioservices, Frederick, MD, USA) were incubated RPMI 1640 and supplemented with 10% human serum AB (HS) (Gemini, Woodland, CA, USA). All media were supplemented with 89 µg/mL streptomycin (Meiji Seika Pharma, Tokyo, Japan) and cells were incubated at 37 °C in a humidified atmosphere of 95% air and 5% CO2. Growing cells were plated at 1 × 10^5 cells/mL into 24-well microtiter tissue culture plates (Iwaki brand Asahi Glass Co., Chiba, Japan) and incubated for 24 h before the addition of the drugs (the optimal cell number for cytotoxicity assays was determined in preliminary experiments). Stock solutions (1 mM, 5 mM, 10 mM, 20 mM, and 50 mM) of compounds and cisplatin (Sigma-Aldrich, St. Louis, MO, USA) were prepared in dimethyl sulfoxide (DMSO; Wako Pure Chemical Industries) and in dimethylformamide (DMF; Wako Pure Chemical Industries) respectively, then were added to fresh culture medium. The concentration of DMSO and DMF in the final culture medium was 1%. The level of cellular reduction of 3-(4,5-dimethylthiazol-2-yl)-2,5-diphenyltetrazolium bromide (MTT) (Dojindo Molecular Technologies, Kumamoto, Japan) was quantified as previously described in the literature with small modifications. The tested compounds were incubated with cells to give a final concentration in the range 50–500 µM for 24 h. At the end of this period, MTT was added to cells in culture to give a final concentration of 0.275 mg/mL and incubated further for 4 h at 37 °C. The medium was removed and the formazan crystals were solubilized by addition of 100 µL DMSO to each well. After the solubilized crystals were diluted (1:10) with DMSO, 100 µL was transferred to wells of 96-well microtiter plates (Iwaki brand Asahi Glass Co.) and the absorbance at 550 nm was measured using a microplate spectrophotometer Infinitive M1000 (Tecan, Groding, Austria). Every concentration was repeated in three wells and IC50 values were defined as the drug concentrations which reduced absorbance to 50 % of control values.

The subject of data set [2] is U251 human glioblastoma cell line. In words: MTT assay for cytotoxicity, U251 cells. Format: cell-based. The note with it: 24 h incubation. As to the method:
as §1
On the technique in general: Tetrazolium assays rely on reduction of a dye to a coloured formazan, in cell work by metabolically active cells.

Data set [3] has as its system U87 human glioblastoma cell line. In words: MTT assay for cytotoxicity, U87 cells. The note with it: for IC50: MTT, 24 h incubation. Format: cell-based. As to the method:
as §1

The next data set concerns U251 cells. In words: Detection of apoptotic and necrotic cells (annexin V/ethidium homodimer III staining). Format: cell-based, human. The source says:
U251 cells were stained and observed by fluorescence microscope (Figure 4). If the cells are colored green with annexin V, and not stained red with ethidium homodimer III, the cells are judged to be apoptotic. […] The apoptotic and necrotic effects of compound 11 were compared with cisplatin. […] Then, apoptotic/necrotic/healthy cells detection kit protocol was applied according to the manufacturer’s instruction manual (PromoKine, Heidelberg, Germany). After the cells were washed twice with 1 × binding buffer, a staining solution containing 50 µL of 1 × binding buffer, 2 µL of FTIC-Annexin V solution, 2 µL of ethidium homodimer III solution and 2 µL of Hoechst 33342 solution was added and the cells were incubated for 15 min at RT, protected from light. Cells were washed with 1 × binding buffer and analyzed by all-in-one fluorescence microscope Biorevo Fluorescence BZ-9000 (Keyence, Osaka, Japan).

In data set [4] the test system is AsPC-1, U87 and U251 cell lines. In words: MTT assay, overall activity on the three cell lines (in words). Format: cell-based, human. To be noted: 10–500 µM, all three cell lines. As to the method: (§2) U251 and U87 human glioblastoma cells were incubated in Dulbecco’s-modified Eagle’s medium (DMEM) (Wako Pure Chemical Industries, Osaka, Japan) supplemented with 10% fetal bovine serum (FBS) (Equitech-Bio, Kerrville, TX, USA). AsPC-1 human pancreas adenocarcinoma and Jurkat human leukemic T-cells were incubated RPMI 1640 (Wako Pure Chemical Industries), supplemented with 10% FBS. Peripheral blood mononuclear cells (PBMC) (Precision Bioservices, Frederick, MD, USA) were incubated RPMI 1640 and supplemented with 10% human serum AB (HS) (Gemini, Woodland, CA, USA). […] Growing cells were plated at 1 × 10^5 cells/mL into 24-well microtiter tissue culture plates (Iwaki brand Asahi Glass Co., Chiba, Japan) and incubated for 24 h before the addition of the drugs (the optimal cell number for cytotoxicity assays was determined in preliminary experiments). […] The level of cellular reduction of 3-(4,5-dimethylthiazol-2-yl)-2,5-diphenyltetrazolium bromide (MTT) (Dojindo Molecular Technologies, Kumamoto, Japan) was quantified as previously described in the literature with small modifications. […] After the solubilized crystals were diluted (1:10) with DMSO, 100 µL was transferred to wells of 96-well microtiter plates (Iwaki brand Asahi Glass Co.) and the absorbance at 550 nm was measured using a microplate spectrophotometer Infinitive M1000 (Tecan, Groding, Austria). […]

The next data set relates to supercoiled pUC19 DNA. In words: DNA cleavage assay (agarose gel electrophoresis). The class given is biochemical. The note with it: 37 °C, 1.5 h. As to the method: The DNA cleavage activities of compound 11 and cisplatin at the IC50 concentrations in water and Tris/boric acid buffer in the presence and absent of the iron complex, H2O2 and ascorbic acid as an activator were studied using supercoiled pUC19 DNA (Figure 5). The reaction mixture was incubated at 37 °C for 1.5 h and then agarose gel electrophoresis was performed at 100 V for 40 min. DNA was visualized by photographing the fluorescence of intercalated ethidium bromide under a UV illuminator. […] Thus, it is considered that DNA-cleavage was caused by oxygen activation.
The DNA cleavage activities of the compounds were studied using supercoiled pUC19 DNA and analyzed by agarose (Takara, Kyoto, Japan) gel electrophoresis Mupid-2x (Mupid, Tokyo, Japan). pUC19 DNA (2 µg) was treated with compounds in water and Tris/boric acid (Nacalai Tesque, Kyoto, Japan) buffer (10 mM, pH 8.5) in the presence and absence of iron (II) sulfate heptahydrate (FeSO4·7H2O; 30 µM) (Wako Pure Chemical Industries), hydrogen peroxide (H2O2; 30 µM) (Tokyo Chemical Industry Co., Tokyo, Japan) and ascorbic acid (30 µM) (Tokyo Chemical Industry Co.) as an activator. […] DNA was visualized by photographing the fluorescence of intercalated ethidium bromide under a UV illuminator (Nippon Genetics Co., Tokyo, Japan).

Data set [5] relates to Jurkat human leukemic T-cells. In words: MTT cell viability, Jurkat cells (tumor selectivity). Format: cell-based. As to the method: as §2
Data set [6] relates to peripheral blood mononuclear cells (PBMC). In words: MTT cell viability, PBMC (tumor selectivity). To be noted: Figure 3b, read-out: IC50 against PBMC. Format: cell-based, human. As to the method:
as §2

As usually defined, the IC50 is the concentration that gives 50% inhibition. For the molecule “1-[(5-(Pyridin-3-yl)-1,3,4-oxadiazol-2-yl)thioacetyl]-3-(2-thienyl)-5-(4-chlorophenyl)-2-pyrazoline [Compound 9]”, the IC50 was 108 ± 30.1 µM in data set [1], more than 500 µM in data set [2] and more than 500 µM in data set [3].
With “1-[(Pyrimidin-2-yl)thioacetyl]-3-(2-thienyl)-5-(4-chlorophenyl)-2-pyrazoline [Compound 7]”, the values for the IC50 in data set [1], in data set [2] and in data set [3] were 236 ± 36.4 µM, more than 500 µM and more than 500 µM, respectively.
“1-[(5-Methyl-1,3,4-thiadiazol-2-yl)thioacetyl]-3-(2-thienyl)-5-(4-chlorophenyl)-2-pyrazoline [Compound 6]”: the IC50 was 199 ± 32.8 µM in data set [1], more than 500 µM in data set [2] and more than 500 µM in data set [3].
Turning to “1-[(1-(2-(Dimethylamino)ethyl)-1H-tetrazol-5-yl)thioacetyl]-3-(2-thienyl)-5-(4-chlorophenyl)-2-pyrazoline [Compound 5]”, the IC50 in data set [1] is 216 ± 29.7 µM; in data set [2], more than 500 µM; in data set [3], more than 500 µM.
`N.N.[Cl][Pt][Cl]` [Cisplatin, reference compound]: the figures for the IC50 in data set [1], in data set [2] and in data set [3] were 22.5 ± 2 µM, 4.9 ± 1 µM and 14.8 ± 1.4 µM, respectively. For the same molecule, the apoptotic/necrotic effect result with U251 cells (IC50 concentration, 24 h) is “only apoptotic effects”.
On to “1-[(1-Methyl-1H-tetrazol-5-yl)thioacetyl]-3-(2-thienyl)-5-(4-chlorophenyl)-2-pyrazoline [Compound 2]”, for which the IC50 in data set [1], in data set [2] and in data set [3] was more than 500 µM in each case.
In turn, “1-[(5-(4-Chlorophenyl)-1,3,4-oxadiazol-2-yl)thioacetyl]-3-(2-thienyl)-5-(4-chlorophenyl)-2-pyrazoline [Compound 10]” displayed a half-inhibitory concentration (IC50) in data set [3] of 251 ± 30.4 µM.
Turning to “1-[(5-Phenyl-1,3,4-oxadiazol-2-yl)thioacetyl]-3-(2-thienyl)-5-(4-chlorophenyl)-2-pyrazoline [Compound 8]”, the IC50 in data set [1] was 139 ± 26.8 µM; in data set [2], 393 ± 60.4 µM; in data set [3], more than 500 µM.
As for “1-[(1-(4-Hydroxyphenyl)-1H-tetrazol-5-yl)thioacetyl]-3-(2-thienyl)-5-(4-chlorophenyl)-2-pyrazoline [Compound 4]”, the IC50 was 65 ± 5.4 µM in data set [1], more than 500 µM in data set [2] and more than 500 µM in data set [3].
Take “1-[(5-(4-Methoxyphenyl)-1,3,4-oxadiazol-2-yl)thioacetyl]-3-(2-thienyl)-5-(4-chlorophenyl)-2-pyrazoline [Compound 12]”: in data set [3], the “cytotoxicity on U87 cell line (in words)” value is listed as “no significant cytotoxicity”.
In the case of “1-[(5-(4-Methylphenyl)-1,3,4-oxadiazol-2-yl)thioacetyl]-3-(2-thienyl)-5-(4-chlorophenyl)-2-pyrazoline [Compound 11]”, in data set [4], the “cytotoxic activity (in words)” value is recorded as “good activity”. Besides, the “DNA-cleaving efficiency compared with cisplatin” value with supercoiled pUC19 DNA (IC50 concentrations, iron (II) complex system) is listed as “more significant than cisplatin; also recorded: much greater than cisplatin”. In the data set with supercoiled pUC19 DNA (pUC19 DNA, 30 µM each activator), the “DNA cleavage efficiency with vs without FeSO4, H2O2 and ascorbic acid” value was “clearly enhanced”. The apoptotic/necrotic effect entry in the data set with U251 cells (IC50 (11.9 µM, high concentration), 3 h) was “mainly induced necrosis”; in the data set on U251 cells (IC50 concentration, 24 h) it was “late stage apoptotic or necrotic effect”; with U251 cells (low concentration (1.5 µM), 3 h), “exhibited apoptotic phenotype; also recorded: induced apoptosis; also recorded: showed apoptotic activity”. The IC50 is 90 µM in data set [5] (MTT, Figure 3b, read-out: IC50 against Jurkat human leukemic T-cells) and approximately 1000 µM in data set [6]. Besides, the “tumor selectivity in blood cells (PBMC vs Jurkat)” value in data set [5] (ratio of IC50 PBMC to IC50 Jurkat) was “more than 10 times”.
As to “1-[(1-Phenyl-1H-tetrazol-5-yl)thioacetyl]-3-(2-thienyl)-5-(4-chlorophenyl)-2-pyrazoline [Compound 3]”, the IC50 in data set [1], in data set [2] and in data set [3] was more than 500 µM each time.
